Source: ChEMBL document CHEMBL1629565, “Relationships among ciprofloxacin, gatifloxacin, levofloxacin, and norfloxacin MICs for fluoroquinolone-resistant Escherichia coli clinical isolates” (2009)
≈ marks a conversion by molar mass, not a printed value. Where “and” joins values, the source holds several entries; their conditions need not be identical. Identical values can stand only once.

Legend:
Format in all cases: functional
Escherichia coli [1] = test: Antimicrobial activity against Escherichia coli ATCC 25922 by agar dilution method
Escherichia coli [2] = test: Antimicrobial activity against fluoroquinolone-sensitive Escherichia coli clinical isolate by Etest
Escherichia coli [3] = test: Antimicrobial activity against fluoroquinolone-resistant Escherichia coli clinical isolate by agar dilution method
Escherichia coli [4] = test: Antimicrobial activity against fluoroquinolone-resistant Escherichia coli clinical isolate by Etest

SMILES | MIC (Escherichia coli [1]) | MIC (Escherichia coli [2]) | MIC (Escherichia coli [3]) | MIC (Escherichia coli [4]) | MIC (Escherichia coli [2]; Escherichia coli, read-out: MIC)
CCn1cc(C(=O)O)c(=O)c2cc(F)c(N3CCNCC3)cc21 [NORFLOXACIN] | 0.03 µg/mL (≈ 0.0939 µM) | 0.06 µg/mL and 0.02 µg/mL | 232 µg/mL (≈ 727 µM) | 16 µg/mL (≈ 50.1 µM) | 
C[C@H]1COc2c(N3CCN(C)CC3)c(F)cc3c(=O)c(C(=O)O)cn1c23.C[C@H]1COc2c(N3CCN(C)CC3)c(F)cc3c(=O)c(C(=O)O)cn1c23.O [LEVOFLOXACIN] |  | 0.023 µg/mL | 39 µg/mL | 8 µg/mL | 0.042 µg/mL
COc1c(N2CCNC(C)C2)c(F)cc2c(=O)c(C(=O)O)cn(C3CC3)c12 (stereo unspecified) [GATIFLOXACIN] | 0.004 µg/mL (≈ 0.0107 µM) |  | 23 µg/mL (≈ 61.3 µM) | 8 µg/mL (≈ 21.3 µM) | 
